Assay results reported in article PMC10818931, “In Vitro Evaluation of Drug–Drug Interaction Potential of Epetraborole, a Novel Bacterial Leucyl-tRNA Synthetase Inhibitor” (Pharmaceuticals, 2024).
In brackets after ≈: the same amount, converted by molar mass. Read-outs that look alike come from different tables or passages of the source.

Assays:
[1] = system: HEK 293 or MDCK cell lines; assay: Cytotoxicity in transporter inhibition studies; type: cell-based; settings: at the concentrations tested in transporter inhibition studies
[2] = Solubility in hepatocyte incubation medium; type: physicochemical; settings: aqueous buffer, read-out: Soluble in hepatocyte incubation medium at
[3] = target: T1, CYP2C8 (Homo sapiens, UniProt P10632); assay: CYP inhibition (direct and metabolism-dependent) in human hepatic microsomes; type: in vitro ADME; settings: for MDI IC50 Fold Change: metabolism-dependent inhibition; for IC50: read-out: as an Inhibitor IC50
T1 construct: tissue CellzDirect; XenoTech LLC; host or cells: pooled human liver microsomes
T1 sequence (P10632 1-490): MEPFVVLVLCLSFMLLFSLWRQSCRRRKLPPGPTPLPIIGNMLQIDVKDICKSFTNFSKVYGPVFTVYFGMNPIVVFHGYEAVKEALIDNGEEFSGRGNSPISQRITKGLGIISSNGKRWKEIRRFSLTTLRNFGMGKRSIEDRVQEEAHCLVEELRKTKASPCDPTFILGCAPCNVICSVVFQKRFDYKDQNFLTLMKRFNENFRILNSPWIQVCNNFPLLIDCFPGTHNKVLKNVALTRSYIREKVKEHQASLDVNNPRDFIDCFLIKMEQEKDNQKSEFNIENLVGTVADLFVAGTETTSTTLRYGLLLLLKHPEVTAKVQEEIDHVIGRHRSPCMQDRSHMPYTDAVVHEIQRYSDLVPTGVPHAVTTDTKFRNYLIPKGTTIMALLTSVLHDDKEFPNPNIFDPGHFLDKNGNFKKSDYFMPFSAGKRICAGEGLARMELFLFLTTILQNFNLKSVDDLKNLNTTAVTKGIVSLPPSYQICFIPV
Method: (§1) The direct inhibitory potential of EBO on cytochrome P450 activities O-deethylase (CYP1A2), bupropion hydroxylase (CYP2B6), amodiaquine N-deethylase (CYP2C8), diclofenac 4′-hydroxylase (CYP2C9), S-mephenytoin 4′-hydroxylase (CYP2C19), bufuralol 1′-hydroxylase (CYP2D6), chlorzoxazone 6-hydroxylase (CYP2E1), testosterone 6β-hydroxylase (CYP3A), and midazolam 1′-hydroxylase (CYP3A) was assessed in vitro using human hepatic microsomes according to Covance Laboratory (Madison, WI, USA) SOP. A single substrate concentration was used, approximating the concentration of substrate that gives half the maximum reaction velocity (Km) for human hepatic microsomes for each cytochrome P450 activity. […] All sample and control incubations were performed in triplicate and were analyzed by LC-MS/MS. Incubation mixtures contained microsomal protein and substrate in a 0.1 M potassium phosphate buffer (pH 7.4) containing 1 mM EDTA (assay buffer). […] Incubations were terminated by the addition of 100 µL of an internal standard solution followed by vortex mixing. Protein was removed by centrifugation at 1500× g for 5 min at 4 °C, and supernatants were transferred to a separate plate and stored at 4 °C prior to LC-MS/MS analysis. The analyte for each activity assay was quantitated by comparison to a linear curve of an authentic standard prepared using human microsomal protein. […] Incubations were performed at substrate concentrations approximating the average Km values. […] For determination of control activities, NADPH was added after the addition of each substrate. Samples were then processed as previously described. […] Two sets of duplicate incubations were prepared (cofactor preincubation [50 µL] and control preincubation [50 µL]) with each concentration of M3. All incubations contained a final microsomal protein concentration of 0.1 mg/mL. In this study, M3 and microsomes were preincubated with cofactor for 20 min prior to initiation of reaction by addition of probe substrate. The corresponding control incubations were designed to provide a preincubation without cofactor while incorporating the 20 min preincubation of M3 with microsomes to ensure consistent equilibration of M3 in both control and cofactor preincubations. The control preincubations were therefore performed for 20 min with M3, microsomes, and probe substrate, and the reaction was initiated by the addition of a cofactor solution. […] Incubations without cofactor (at the highest concentration of M3) were performed to determine any cofactor-independent substrate metabolism formation. Probe substrate concentrations were determined by LC/MS/MS methods.

[4] = target: T2, CYP2C9 (Homo sapiens, UniProt P11712); assay: as above; type: in vitro ADME; settings: for MDI IC50 Fold Change: metabolism-dependent inhibition; for IC50: read-out: as an Inhibitor IC50
T2 construct: tissue CellzDirect; XenoTech LLC; host or cells: pooled human liver microsomes
T2 sequence (P11712 whole entry): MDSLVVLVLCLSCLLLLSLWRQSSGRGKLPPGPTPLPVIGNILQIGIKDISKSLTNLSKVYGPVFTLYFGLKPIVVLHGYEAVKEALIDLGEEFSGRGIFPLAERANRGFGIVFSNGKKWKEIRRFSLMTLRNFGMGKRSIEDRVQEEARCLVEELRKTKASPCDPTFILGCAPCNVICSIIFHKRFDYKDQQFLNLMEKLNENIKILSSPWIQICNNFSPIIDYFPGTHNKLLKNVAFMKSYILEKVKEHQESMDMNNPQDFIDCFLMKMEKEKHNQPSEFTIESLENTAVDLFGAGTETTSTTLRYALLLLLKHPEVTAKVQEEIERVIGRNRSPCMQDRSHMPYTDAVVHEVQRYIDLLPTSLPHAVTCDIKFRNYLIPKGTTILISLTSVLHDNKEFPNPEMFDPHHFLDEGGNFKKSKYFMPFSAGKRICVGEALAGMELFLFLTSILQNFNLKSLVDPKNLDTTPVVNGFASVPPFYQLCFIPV
Method: as §1

[5] = system: CYP3A4/5; assay: as above; type: in vitro ADME; settings: for MDI IC50 Fold Change: metabolism-dependent inhibition; for IC50: read-out: as an Inhibitor IC50
Method: as §1

[6] = system: CYP1A2; assay: as above; type: in vitro ADME; settings: for MDI IC50 Fold Change: metabolism-dependent inhibition; for IC50: pH 7.4, EBO 0.03–100 μM, M3 1–1000 µM, read-out: as an Inhibitor IC50
Method: as §1

[7] = system: CYP3A4; assay: as above; type: in vitro ADME; settings: for MDI IC50 Fold Change / IC50: CYP3A4 (Testosterone); for MDI IC50 Fold Change: metabolism-dependent inhibition; for IC50: human, read-out: as an Inhibitor IC50
Method: as §1

[8] = target: T3, CYP2D6 (Homo sapiens, UniProt P10635); assay: as above; type: in vitro ADME; settings: for MDI IC50 Fold Change: metabolism-dependent inhibition; for IC50: read-out: as an Inhibitor IC50
T3 construct: Characterized, pooled, human hepatic microsomes from 15 individuals; tissue CellzDirect (Durham, NC, USA) or XenoTech LLC (Lenexa, KS, USA); host or cells: pooled human liver microsomes (15 donors)
T3 sequence (P10635 whole entry): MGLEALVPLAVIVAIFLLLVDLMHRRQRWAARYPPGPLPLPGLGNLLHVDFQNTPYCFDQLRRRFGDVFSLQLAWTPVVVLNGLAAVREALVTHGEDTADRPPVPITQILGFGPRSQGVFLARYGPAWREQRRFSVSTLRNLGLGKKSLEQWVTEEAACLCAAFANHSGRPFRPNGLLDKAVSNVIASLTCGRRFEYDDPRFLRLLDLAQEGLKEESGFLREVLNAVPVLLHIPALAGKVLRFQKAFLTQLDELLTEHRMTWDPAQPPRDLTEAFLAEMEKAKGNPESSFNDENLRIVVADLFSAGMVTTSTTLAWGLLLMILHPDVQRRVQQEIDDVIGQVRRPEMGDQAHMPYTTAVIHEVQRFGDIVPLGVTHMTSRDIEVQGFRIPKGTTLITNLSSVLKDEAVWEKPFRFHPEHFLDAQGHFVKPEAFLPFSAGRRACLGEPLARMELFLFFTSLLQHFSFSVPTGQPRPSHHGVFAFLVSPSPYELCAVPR
Method: as §1

[9] = target: P-gp (Homo sapiens, UniProt P08183); assay: Effect on P-gp mediated transport of 3H-digoxin in Caco-2; type: in vitro ADME; parameters: host or cells: Caco-2
Chain of P-gp (P08183 whole entry): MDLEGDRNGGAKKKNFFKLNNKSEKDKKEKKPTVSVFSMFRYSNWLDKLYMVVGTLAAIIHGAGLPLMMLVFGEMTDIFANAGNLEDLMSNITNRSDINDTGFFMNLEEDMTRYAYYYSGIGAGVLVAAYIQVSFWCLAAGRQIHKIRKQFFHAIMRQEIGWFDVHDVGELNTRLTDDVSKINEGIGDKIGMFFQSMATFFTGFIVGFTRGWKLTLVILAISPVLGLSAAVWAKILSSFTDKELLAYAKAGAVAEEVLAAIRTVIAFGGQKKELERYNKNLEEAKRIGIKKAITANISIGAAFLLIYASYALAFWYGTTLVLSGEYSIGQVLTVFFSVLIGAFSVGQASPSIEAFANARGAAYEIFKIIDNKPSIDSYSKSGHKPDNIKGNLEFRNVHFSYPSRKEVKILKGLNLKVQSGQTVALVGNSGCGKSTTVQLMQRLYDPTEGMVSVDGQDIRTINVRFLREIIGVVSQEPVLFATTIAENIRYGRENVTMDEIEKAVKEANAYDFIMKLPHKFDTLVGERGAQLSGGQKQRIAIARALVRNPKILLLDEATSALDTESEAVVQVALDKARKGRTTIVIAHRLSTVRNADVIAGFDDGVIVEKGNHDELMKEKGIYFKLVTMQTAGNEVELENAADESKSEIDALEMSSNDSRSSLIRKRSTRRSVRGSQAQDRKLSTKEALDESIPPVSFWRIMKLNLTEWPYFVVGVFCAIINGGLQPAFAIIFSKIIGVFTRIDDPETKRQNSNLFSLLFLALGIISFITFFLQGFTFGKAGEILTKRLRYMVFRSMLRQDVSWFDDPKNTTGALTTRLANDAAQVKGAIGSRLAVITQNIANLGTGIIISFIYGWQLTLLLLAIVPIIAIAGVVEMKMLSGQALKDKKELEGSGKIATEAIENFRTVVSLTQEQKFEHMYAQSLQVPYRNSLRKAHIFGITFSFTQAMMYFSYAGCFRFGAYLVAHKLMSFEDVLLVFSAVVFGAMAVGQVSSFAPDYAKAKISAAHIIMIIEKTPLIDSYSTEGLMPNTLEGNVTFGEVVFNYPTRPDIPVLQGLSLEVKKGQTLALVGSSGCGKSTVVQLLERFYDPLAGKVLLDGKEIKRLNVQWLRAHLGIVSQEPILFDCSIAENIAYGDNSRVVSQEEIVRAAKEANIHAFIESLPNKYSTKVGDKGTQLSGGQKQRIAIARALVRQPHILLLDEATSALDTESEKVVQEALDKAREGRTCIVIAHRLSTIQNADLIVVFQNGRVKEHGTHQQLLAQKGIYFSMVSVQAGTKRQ
Method: The concentrations of each radiolabeled compound in the resulting samples were determined using liquid scintillation counting (LSC).

[10] = system: human hepatocytes; assay: Cytotoxicity in hepatocytes; settings: EBO at 100 µM, M3 at 250 µM
Method: The induction potential of EBO and M3 on CYP1A2, CYP2B6, and 3A4 was evaluated by incubating the test articles with plated human hepatocytes from 3 individual donors (GKJ, ZEY, WKF) in triplicate according to WuXi AppTec (Cranbury, NJ, USA) SOP.

Compound | Cytotoxicity [1] | solubility [2] [mM] | MDI IC50 Fold Change [3] | IC50 [3] [mM] | MDI IC50 Fold Change [4] | IC50 [4] [mM] | MDI IC50 Fold Change ([5]; CYP3A4/5 (Midazolam)) | MDI IC50 Fold Change ([6]; CYP1A2) | MDI IC50 Fold Change [7] | MDI IC50 Fold Change [8] | IC50 [8] [mM] | Cytotoxicity (>20%) [10] | further results
NC[C@H]1OB(O)c2c(OCCCO)cccc21 [EBO, Epetraborole] | Neither EBO nor M3 induced any cytotoxicity | 20 (≈ 4740 µg/mL) | No | > 0.1 | No | > 0.1 | No | No | No | No | > 0.1 | did not induce cytotoxicity (>20%) | IC50 ([5]; human, human hepatic (liver) microsomes, pH 7.4, probe midazolam (1′-hydroxylation), CYP3A4/5 (Midazolam)): > 0.1 mM; inhibition at 100 µM ([6]; human, human hepatic microsomes, pH 7.4, highest concentration tested (100 µM), read-out: Decrease of CYP1A2 activity (inhibition)): ~30%; IC50 ([6]; human, human liver microsomes, CYP1A2): > 0.1 mM; Percentage of CYP1A2 activity remaining ([6]; preincubation with EBO in the absence of NADPH): 72.4%; Percentage of CYP1A2 activity remaining ([6]; preincubation with EBO in the presence of NADPH): 81.7%; IC50 ([7]; human hepatic (liver) microsomes, pH 7.4, probe testosterone (6β-hydroxylation)): > 0.1 mM; Inhibition of P-gp-mediated transport of digoxin [9]: not a significant inhibitor; Efflux ratio of digoxin in the presence of test article ([9]; EBO 100 µM): unchanged
NC[C@H]1OB(O)c2c(OCCC(=O)O)cccc21 [M3] | Neither EBO nor M3 induced any cytotoxicity | 0.25 (≈ 62.8 µg/mL) | No | > 1 | No | > 1 | No | No | No | No | > 1 | did not induce cytotoxicity (>20%) | Direct or time-dependent inhibitory activity (in words) [3]: No direct or time-dependent inhibitory activity; Direct or time-dependent inhibitory activity (in words) [4]: No direct or time-dependent inhibitory activity; MDI IC50 Fold Change ([5]; CYP3A4/5 (Atorvastatin)): No; IC50 ([5]; CYP3A4/5 (Atorvastatin)): > 1 mM; IC50 ([5]; human, microsomes, pH 7.4, CYP3A4/5 (Midazolam)): > 1 mM; Direct or time-dependent inhibitory activity (in words) ([6]; CYP1A2): No direct or time-dependent inhibitory activity; IC50 ([6]; human, microsomes, CYP1A2): > 1 mM; Direct or time-dependent inhibitory activity (in words) ([7]; CYP3A4): No direct or time-dependent inhibitory activity; IC50 ([7]; microsomes, pH 7.4): > 1 mM; Direct or time-dependent inhibitory activity (in words) [8]: No direct or time-dependent inhibitory activity
